Each structure is given as a SMILES string.

In general, pKa refers to the pH at which an ionisable group is half protonated. A higher pKa goes with a weaker acid or stronger base.

The conditions of one data set: acidic group.
Regarding `CN(C)c1cccc2c(S(N)(=O)=O)cccc12`, the pKa was 9.9. `O=c1ccccc(O)c1`: the pKa amounted to 5.4. `CC(=O)N1CCC[C@H]1C(=O)O` had a pKa of 3.21. `O=C(O)C[Se]c1ccc([N+](=O)[O-])cc1` returned a pKa of 3.46. In the case of `Cc1ccc(C)c(NN=C(C#N)C#N)c1`, the pKa worked out at 6.75. Consider `NC1=[NH+][C@@H](CC(=O)O)C(=O)N1CCCC([NH3+])C(=O)O` (stereo partly drawn), for which the pKa came to 1.86. For `COc1cnc[nH+]c1O`, the pKa came to 1.75.

On to `COc1cccc[n+]1O`, for which the pKa was determined as 1.23. With `O=c1cc[nH]cc1`, the pKa was 11.1. `CC1=NCCc2c1[nH]c1ccccc21` displayed a pKa of 14.9. On to `Cc1csc(-c2cccc(NS(=O)(=O)c3ccc(N)cc3)c2)n1`, for which the pKa is 9.2.

The compound `CC(C)C([NH3+])C(=O)O` (stereo not drawn) had a pKa of 2.41. With `COc1ccc(C(=O)O)cc1C`, the pKa turned out to be 4.35. Same read-out and setting: for `CCc1c(O)ccc(C(C)C)c1C` the value was 10.8.

With `O=C(O)/C(I)=C\c1ccccc1`, the pKa was determined as 2.24. As to `COc1cc(C(N)=O)ccc1-c1nc2c(ncn2C)[nH]1`, the pKa came to 11.7.

`O=C(O)c1c(O)cccc1[N+](=O)[O-]` displayed a pKa of 2.24.

`CC(=O)c1cc(C)c(C)cc1O` gave a pKa of 11.6. The compound `COc1cccc(-c2nnn[nH]2)c1` registered a pKa of 3.91. Still for that read-out and setting: for `C[C@H]1O[C@H](O[C@H]2CC[C@H]([n+]3ccc(N)nc3O)O[C@@H]2C)[C@H](O)[C@@H](O)[C@@H]1[NH+](C)C` the value was 3.9.

As to `CC[NH+]1CCC[C@@H]1CNC(=O)c1c(O)c(Br)cc(Br)c1OC`, the pKa was 5.88. In the case of `Cc1cccc(C)c1NN=C(C#N)C#N`, the pKa came out at 6.6.

Compound `Cc1cc(N)ccc1S(=O)(=O)Nc1nccs1` had a pKa of 7.3.

On to `COc1c(C)cc2c(c1C(=O)O)COC2`, for which the pKa was 3.13.

For `OCO`, the pKa amounted to 12.8. Still for that read-out and setting: for `O=P(C1CCCCC1)(C1CCCCC1)C1CCCCC1` the value was 13.7. Compound `O=C(NO)c1ccncc1` yielded a pKa of 7.82. In turn, `O=c1cc(-c2ccccc2)oc2cc(O)ccc12` came in with a pKa of 7.39. As to `O=C(O)C#CBr`, the pKa stood at 1.9. In turn, `[NH3+]C(CC(=O)[O-])C(=O)NC(CC(=O)O)C(=O)[O-]` (stereo not drawn) displayed a pKa of 4.7. Compound `O=C(O)c1ccc(O)cc1` had a pKa of 4.57. `CC(Br)[N+](=O)[O-]` (stereo not drawn): the pKa was 7.17. Turning to `Nc1[nH]cc(O)[nH+]1`, the pKa is 4.8.

`CCCCCC(=O)NO` had a pKa of 9.58.

On to `[NH3+]C(CCc1ccc([N+](=O)[O-])cc1)C(=O)O` (stereo not drawn), for which the pKa amounted to 3.05.

With `N#Cc1ccccc1-c1nnn[nH]1`, the pKa was 3.55. `Cc1ccc(C)c(O)c1` showed a pKa of 10.4.

`Cc1ccc(C(=O)NS(=O)(=O)c2ccc(N)cc2)cc1C` yielded a pKa of 4.66. `CCNc1cc[nH+]c(S)n1`: the pKa came to 3.1. Still for that read-out and setting: the value for `C#CC#CC=C=CC(O)CCC(=O)O` (stereo not drawn) was 4.8. In the case of `CN(C)C(=S)SCC(=O)O`, the pKa stood at 3.34.

Still in this data set, the particulars now being: basic group.
Consider `CN(C)c1cccc2c(S(N)(=O)=O)cccc12`, for which the pKa was 3.8.

Compound `CCNN(CC)CC` came in with a pKa of 7.08. In the case of `CC(C)NCC(=O)[O-]`, the pKa came to 10.1. With `Nc1ccc(-c2ccc([NH3+])cc2)cc1`, the pKa is 3.66. On the same count and under the same terms, the value for `CCNCl` was 0.93; that for `CN(C)Cc1ccc(NC(=O)/C=N/[O-])cc1` was 9.56; that for `COC(=O)C1=CN2CCC1CC2` was 7.17. In the case of `Cc1ccc(C)c(NN=C(C#N)C#N)c1`, the pKa was -0.84.

Turning to `Nc1cccc2ccncc12`, the pKa was determined as 6.06. `c1cc(-c2ccncc2)ccn1` gave a pKa of 4.82. On to `C=CC1CN2CCC1C[C@H]2C(=O)[O-]` (stereo partly drawn), for which the pKa turned out to be 10.6. `CC(C)(C)CNc1ccccc1` yielded a pKa of 4.17. The same measure, in the same setting: the value for `Cc1ccccc1-n1nnnc1N` was 1.23; that for `Cc1[nH]nc(O)c1C(C)C` was 3; that for `N[C@H]1CONC1=O` was 7.53.

Take `CC1=NCCc2c1[nH]c1ccccc21`: the pKa worked out at 8.99.

Take `O=[N+]([O-])c1ccc(-c2cnc(-c3ccccc3)o2)cc1`: the pKa came to 0.35.

`CCCC(=N)OCC` yielded a pKa of 7.08. The compound `[Se-]c1ncnc2nc[nH]c12` came in with a pKa of 7.33. The same measure, in the same setting: the value for `CC[C@@H]1C(=O)OC[C@H]1Cc1cncn1C` was 7.17; that for `C=C(C)C(=O)OCCN(C(C)C)C(C)C` was 8.77. Turning to `CCCCC(CC)CNc1ncnc2[nH]ncc12` (stereo not drawn), the pKa worked out at 4.6.

`Cn1ncc2c(N)ncnc21` had a pKa of 4.32.

`Oc1ccc(Cl)cc1CN1CCCC1` showed a pKa of 11.7.

In the case of `CC(c1ccccc1)N1CC(O[Si](C)(C)C)C1` (stereo not drawn), the pKa stood at 7.82. Still for that read-out and setting: the value for `Cc1ccc(N)c(N)c1` was 5. `O=C([O-])[C@]12CNCC[C@H]1O2` came in with a pKa of 9.14. Compound `C/C(N)=N/O` registered a pKa of 5.9. `CCCCCCCCCCCCCCN(CC(C)O)CC(C)O` (stereo not drawn) yielded a pKa of 8.4. Regarding `COc1cc(C(N)=O)ccc1-c1nc2c(ncn2C)[nH]1`, the pKa was 3.8. On the same count and under the same terms, for `CN(C)CCCCC(=O)Oc1ccc([N+](=O)[O-])cc1` the value was 9.9; for `C[NH+]1CCn2c(nc3ccccc32)C1`, 2.55. For `CCN(CC)C(C)C=C(c1cccs1)c1cccs1` (stereo not drawn), the pKa turned out to be 8.9. Regarding `CNC(N)=O`, the pKa was 0.8.

In the case of `c1ccc(NC2=NCCCO2)cc1`, the pKa stood at 9.33. `C[NH+]1C[C@H](C(=O)O)C[C@@]2(O)c3cccc4[nH]cc(c34)C[C@H]12` showed a pKa of 3.94. For `CC(=O)Nc1c(C)n(C)n(-c2ccccc2)c1=O`, the pKa was found to be 0.18. Turning to `c1ncc(Cc2cnc[nH]2)[nH]1`, the pKa was 7.63.

Turning to `Brc1c[nH]cn1`, the pKa turned out to be 3.8.

`CC(O)C[NH+](CCCN1CCOCC1)CC(C)O` (stereo not drawn): the pKa was 5.5.

In turn, `Nc1nc([S-])c2ncn([C@H]3O[C@@H](CO)[C@H](O)[C@@H]3O)c2n1` gave a pKa of 8.34.

For the compound `Cc1cccc(C)c1NN=C(C#N)C#N`, the pKa was -0.82.

`Cc1cnc2c(ccc3c(C)ccnc32)c1`: the pKa amounted to 5.57. For `Nc1nc2ccccc2nc1N`, the pKa was 4.7. In turn, `CCOC(=O)c1cnc2cc3c(cc2c1OCC)OCO3` came in with a pKa of 4.09. Still for that read-out and setting: the value for `Nc1cnc2cc3ccccc3cc2c1` was 4.78; that for `O=P(C1CCCCC1)(C1CCCCC1)C1CCCCC1` was 5.04. In turn, `CCC(C)(CC)Nc1ccccc1` gave a pKa of 6.32. For the compound `Cc1ccc(NC(=O)CN2CCCCC2)cc1`, the pKa turned out to be 7.85.

`Cn1cnc(C(=O)[O-])c1C(=O)[O-]` registered a pKa of 8. On to `NC(=O)CCCc1cccnc1`, for which the pKa was 5.33.

In turn, `COc1ccc2c(c1)CC(C)N2` (stereo not drawn) came in with a pKa of 6.2.

`O=C([O-])c1cc(-c2ccccc2)nnc1NCC[NH+]1CCOCC1` had a pKa of 3.33. Consider `C[n+]1c([S-])nc([O-])c2ccccc21`, for which the pKa was found to be 9.23. `Cn1ncc2c(NCc3ccccc3)ncnc21`: the pKa came out at 3.66. On to `CC(C)(N)C(=O)O`, for which the pKa was 10.2.

In turn, `Cn1ccnc1` had a pKa of 7.15.

In turn, `CN(C)CCCN(C)CCC[NH+](C)C` returned a pKa of 9. Take `CN(C)CCOC(C)(c1ccccc1)c1ccccc1`: the pKa came out at 8.75. Regarding `Cn1nncc1Nc1ccccc1`, the pKa is 1.73. The compound `COc1ccc(NCO)cc1` displayed a pKa of 3.72. Regarding `CCNCCN`, the pKa was 10.5.

(Values after the pKa sets of Baltruschat and Czodrowski (2020).)
